According to patent US9890166B2, “Imidazopyrrolidine derivatives and their use in the treatment of disease” (NOVARTIS AG, priority 2013, dated 2018):

Tests used:
[1] = biological target: nuclear BRD4-NUT foci in HCC2494 NUT midline carcinoma cells (Homo sapiens, UniProt O60885); assay: cell-based
[2] = test system: K-562 cells; assay: Cell growth inhibition assay (CellTiter-Glo), K-562; details: for GI50: Homo sapiens, K562, read-out: K-562 GI50; for K-562 TGI: K-562 cells, total growth inhibition, CellTiter-Glo;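 for all read-outs here: cellular ATP measured by luminescence after 4 days of exposure, 3-fold dilution series from 10 µM, DMSO vehicle-treated cells define 100%, cell-free medium wells −100%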
[3] = biological target: BRD2 (His-Brd2(60-472)) (Homo sapiens (Human), UniProt P25440); assay: TR-FRET in-vitro binding assay for BRD2; details: single determination or n ≧ 2 independent determinations, read-out: Biochemical IC50 BRD2
How it was run: (§1)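 In this TR-FRET format, each compound was tested as an 8-point dilution series, single point per concentration, dispensed from 90% DMSO solution. Incubation lasted 35 minutes at 30° C.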

[4] = test system: MV-4-11 cells; assay: Cell growth inhibition assay (CellTiter-Glo), MV-4-11; details: for GI50: Homo sapiens, MV4-11, read-out: MV-4-11 GI50; for MV-4-11 TGI: MV-4-11 cells, total growth inhibition, CellTiter-Glo;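 for all read-outs here: cellular ATP luminescence after 4 days, 3-fold dilution series from 10 µM top dose, vehicle (0.1% DMSO) set to 100%, cell-free medium set to −100%, day 0 corrected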
[5] = biological target: CREBBP bromodomain (His-CREBBP(1081-1197)) (Homo sapiens (Human), UniProt Q92793); assay: AlphaScreen in-vitro binding assay for CREBBP; details: single determination or n ≧ 2 independent determinations, read-out: Biochemical IC50 CREBBP
How it was run: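 Detection used nickel-chelate acceptor plus streptavidin donor AlphaScreen beads, 1 h room temperature. Percent inhibition fitted by non-linear regression to IC50.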

[6] = biological target: BRD4 (His-Brd4(44-477)) (Homo sapiens (Human), UniProt O60885); assay: TR-FRET in-vitro binding assay for BRD4; details: single determination or n ≧ 2 independent determinations, read-out: Biochemical IC50 BRD4
How it was run: as §1

[7] = test system: THP-1 cells; assay: Cell growth inhibition assay (CellTiter-Glo), THP-1; details: for GI50: Homo sapiens, THP-1, read-out: THP-1 GI50; for THP-1 TGI: THP-1 cells, total growth inhibition, CellTiter-Glo;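 for all read-outs here: viability read as cellular ATP luminescence after 4 days, 3-fold dilution series from 10 µM, DMSO vehicle-treated cells taken as 100%, cell-free medium wells as −100%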
[8] = biological target: BRD3 (His-Brd3(20-477)) (Homo sapiens (Human), UniProt Q15059); assay: TR-FRET in-vitro binding assay for BRD3; details: single determination or n ≧ 2 independent determinations, read-out: Biochemical IC50 BRD3
How it was run: as §1

Sequence of BRD3 (His-Brd3(20-477)) (Q15059 20-477): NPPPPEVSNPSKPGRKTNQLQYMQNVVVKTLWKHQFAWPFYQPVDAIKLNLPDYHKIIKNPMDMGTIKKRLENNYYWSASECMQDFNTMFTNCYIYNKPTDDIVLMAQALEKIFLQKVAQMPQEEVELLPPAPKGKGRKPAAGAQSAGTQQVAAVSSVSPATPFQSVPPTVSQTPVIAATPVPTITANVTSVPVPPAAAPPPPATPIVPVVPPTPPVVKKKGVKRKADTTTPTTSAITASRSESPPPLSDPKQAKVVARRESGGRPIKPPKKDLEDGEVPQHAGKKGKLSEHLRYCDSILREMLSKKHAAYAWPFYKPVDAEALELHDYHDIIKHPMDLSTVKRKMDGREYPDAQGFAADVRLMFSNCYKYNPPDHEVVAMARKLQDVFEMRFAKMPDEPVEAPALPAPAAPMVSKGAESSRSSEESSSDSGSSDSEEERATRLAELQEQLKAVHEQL
Sequence of BRD2 (His-Brd2(60-472)) (P25440 60-472): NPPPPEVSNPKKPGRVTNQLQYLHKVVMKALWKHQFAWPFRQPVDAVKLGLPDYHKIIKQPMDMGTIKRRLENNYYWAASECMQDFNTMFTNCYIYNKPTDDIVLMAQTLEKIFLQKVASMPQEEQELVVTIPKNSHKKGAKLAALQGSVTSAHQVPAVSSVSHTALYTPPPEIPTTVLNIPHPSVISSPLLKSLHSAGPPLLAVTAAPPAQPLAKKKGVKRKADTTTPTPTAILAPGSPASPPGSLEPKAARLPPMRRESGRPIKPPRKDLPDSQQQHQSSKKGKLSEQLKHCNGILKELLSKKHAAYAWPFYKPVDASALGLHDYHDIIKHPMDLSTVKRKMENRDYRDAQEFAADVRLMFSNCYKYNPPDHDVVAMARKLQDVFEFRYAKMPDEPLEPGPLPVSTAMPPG
Sequence of CREBBP bromodomain (His-CREBBP(1081-1197)) (Q92793 1081-1197): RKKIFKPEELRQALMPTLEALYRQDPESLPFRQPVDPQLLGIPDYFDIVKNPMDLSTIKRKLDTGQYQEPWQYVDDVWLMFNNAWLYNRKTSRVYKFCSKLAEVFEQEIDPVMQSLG

Row | Compound | IC50 [1] [nM] | GI50 [2] [nM] | IC50 [3] [nM] | GI50 [4] [nM] | IC50 [5] [nM] | IC50 [6] [nM] | GI50 [7] [nM] | IC50 [8] [nM] | K-562 TGI [2] [nM] | MV-4-11 TGI [4] [nM] | THP-1 TGI [7] [nM]
1 | COc1ncc(-c2nc3c(n2C)C(c2ccc(Cl)cc2)N(c2cc(OC)c4nnc(C)n4c2)C3=O)c(OC)n1 (centres unmarked) [Example 54, 6-(4-chlorophenyl)-2-(2,4-dimethoxypyrimidin-5-yl)-5-(8-methoxy-3-methyl-[1,2,4]triazolo[4,3-a]pyridin-6-yl)-1-methyl-5,6-dihydropyrrolo[3,4-d]imidazol-4(1H)-one] | 3390 | > 10000 | 120 | 2100 | > 37000 | 59 | 3710 | 98 | >10000 | 3600 | >10000
2 | COc1ccc(-c2nc3c(n2C)C(c2ccc(Cl)cc2)N(c2cc(OC)c4nnc(C)n4c2)C3=O)cn1 (centres unmarked) [Example 55, 6-(4-chlorophenyl)-5-(8-methoxy-3-methyl-[1,2,4]triazolo[4,3-a]pyridin-6-yl)-2-(6-methoxypyridin-3-yl)-1-methyl-5,6-dihydropyrrolo[3,4-d]imidazol-4(1H)-one] | 2800 | 7250 | 110 | 706 | > 37000 | 56 | 2000 | 92 | >10000 | 1060 | 4410
3 | COc1cc(N2C(=O)c3nc(C4CC4)n(C)c3C2c2ccc(Cl)cc2)cn2c(C)nnc12 (centres unmarked) [Example 56, 6-(4-chlorophenyl)-2-cyclopropyl-5-(8-methoxy-3-methyl-[1,2,4]triazolo[4,3-a]pyridin-6-yl)-1-methyl-5,6-dihydropyrrolo[3,4-d]imidazol-4(1H)-one] | 1210 | 3230 | 290 | 816 | > 37000 | 130 | 1240 | 210 | >10000 | 1340 | 3670

These reach a lower IC50 [1]. Values come first.

Row | IC50 [1] [nM] | GI50 [2] [nM] | IC50 [3] [nM] | GI50 [4] [nM] | IC50 [5] [nM] | IC50 [6] [nM] | GI50 [7] [nM] | IC50 [8] [nM] | Compound | K-562 TGI [2] [nM] | MV-4-11 TGI [4] [nM] | THP-1 TGI [7] [nM]
4 | 408 | 1720 | 360 | 209 | > 37000 | 120 | 377 | 480 | COc1ncc(-c2nc3c([nH]2)C(c2ccc(Cl)cc2)N(c2cc(OC)c4nnc(C)n4c2)C3=O)c(OC)n1 (centres unmarked) [Example 127, 6-(4-chlorophenyl)-2-(2,4-dimethoxypyrimidin-5-yl)-5-(8-methoxy-3-methyl-[1,2,4]triazolo[4,3-a]pyridin-6-yl)-5,6-dihydropyrrolo[3,4-d]imidazol-4(1H)-one] | >10000 | 317 | 966
5 | 91.2 | 572 | < 11 | 40.5 | 5100 | < 11 | 83.6 | < 11 | Cc1cc(N2C(=O)c3nc(C4CC4)n(C)c3C2c2ccc(Cl)cc2)cn2c(C)nnc12 (centres unmarked) [Example 57, 6-(4-chlorophenyl)-2-cyclopropyl-5-(3,8-dimethyl-[1,2,4]triazolo[4,3-a]pyridin-6-yl)-1-methyl-5,6-dihydropyrrolo[3,4-d]imidazol-4(1H)-one] | >10000 | 68.8 | 193
6 | 3.4 | 28.4 | 14 | 2.1 | 1080 | < 11 | 5.12 | 12 | Cc1cc(N2C(=O)c3c(nc(C)n3C(C)C)[C@H]2c2ccc(Cl)cc2)cc2c1nnn2C [Example 118, (R)-6-(4-chlorophenyl)-5-(3,7-dimethyl-3H-benzo[d][1,2,3]triazol-5-yl)-3-isopropyl-2-methyl-5,6-dihydropyrrolo[3,4-d]imidazol-4(3H)-one] | >10000 | 3.79 | 12.5
7 | 3.07 | 48.1 | 29 | 10.8 | 4400 | 29 | 9 | 27 | CCn1c(C)nc2c1C(=O)N(c1cc(C)c3nnn(C)c3c1)C2c1ccc(Cl)cc1 (centres unmarked) [Example 121, 6-(4-chlorophenyl)-5-(3,7-dimethyl-3H-benzo[d][1,2,3]triazol-5-yl)-3-ethyl-2-methyl-5,6-dihydropyrrolo[3,4-d]imidazol-4(3H)-one] | >10000 | 20.9 | 20.1
